Read-outs that look alike come from different tables or passages of the source.
How the values were obtained:
[1] = PF1022 substance, in words, cited from earlier work
[2] = system: parasites in digestive tract of unigastric animals; conditions: used alone; unigastric animals such as fowl, dog, cat and swine; cited from earlier work
[3] = system: sheep nematodes in the digestive tract; test: Anthelmintic effect on sheep nematodes in the digestive tract (EPG); format: in vivo; conditions: PF1022 substance alone oral 25 mg/kg/day for two days
Procedure: (§1) The medicinal composition of the present invention was administered to animals in an amount corresponding to a definite amount of PF1022 substance. The whole feces was collected everyday and the number of parasitic eggs per gram of the feces (EPG) were counted. Two weeks after the initiation of the administration, each animal was dissected and the number of parasites remaining in the intestine were counted.
(§2) The medicinal composition obtained in Example 1 was orally administered in a dose as corresponding to 25 mg of PF1022 substance/kg/day for two days. As a control, PF1022 substance alone was administered in the same manner as those described above. […] Each of the medicinal composition as shown in Table 4 was orally administered in a dose corresponding to 5 mg of PF1022 substance/kg/day for two days. As a control, PF1022 substance alone was orally administered in a dose of 25 mg/kg/day for two days.

[4] = Water solubility of PF1022 substance (elution into buffer, HPLC); format: physicochemical; conditions: aqueous buffer, 40 °C, 50 mg PF1022 substance in 50 ml, read-out: Concentration of PF1022 substance
Procedure: The compositions of Examples 1 to 9 and PF1022 substance alone, employed as a control, were tested. Each composition was weighed in a 100 ml-Erlenmeyer flask, in an amount corresponding to 50 mg of PF1022 substance and 50 ml of McDougall buffer or Clark Lubs buffer was added thereto. McDougall buffer is prepared by dissolving 7.43 g of sodium hydrogencarbonate, 7.0 g of disodium phosphate 12-hydrate, 0.34 g of sodium chloride, 0.43 g of potassium chloride, 0.10 g of magnesium chloride hexahydrate and 0.05 g of calcium chloride in 1,000 ml of water and saturating the mixture with carbon dioxide gas (pH 6.8). Clark Lubs buffer is prepared by adding 50 ml of 0.2N potassium chloride and 10.6 ml of 0.2N hydrochloric acid to 139.4 ml of water (pH 2.0). The mixture was shaken in a thermostat at 40 °±0.5° C. at a vibrational amplitude of 4 cm at 60 rpm to figure eight. Sampling was made with the lapse of time and the amount of the eluate was determined by high performance liquid chromatography.

parasites = conditions: rumenal animals such as cattle, sheep and goat; cited from earlier work
[5] = system: cattle nematodes in the digestive tract; test: Anthelmintic effect on cattle nematodes in the digestive tract (EPG); format: in vivo; conditions: oral 25 mg PF1022 substance/kg/day for two days
Procedure: as §1, §2

Q: With `CC(C)CC1C(=O)OC(Cc2ccccc2)C(=O)N(C)C(CC(C)C)C(=O)OC(C)C(=O)N(C)C(CC(C)C)C(=O)OC(Cc2ccccc2)C(=O)N(C)C(CC(C)C)C(=O)OC(C)C(=O)N1C` (stereo not shown) [PF1022 substance] as the compound, how does the solubility in water [1] read?
A: Its solubility in water is “extremely poor solubility in water”.

Q: What about the solubility in water ([1]; listed as PF1022 Substance) of the same compound?
A: Its solubility in water is “practically insoluble or hardly dispersible in water”.

Q: And the anthelmintic effect [2]?
A: Its anthelmintic effect is “particularly marked anthelmintic effect”.

Q: What about the “Number of eggs per gram of feces (EPG)” value ([3]; day 0) of the same compound?
A: The value was 2997 EPG.

Q: And the “Number of eggs per gram of feces (EPG)” value ([3]; day 1)?
A: The value was 2313 EPG.

Q: And the “Number of eggs per gram of feces (EPG)” value ([3]; day 3)?
A: The value was 13 EPG.

Q: What about the “Number of eggs per gram of feces (EPG)” value ([3]; day 5) of the same compound?
A: The value was 9 EPG.

Q: What about the “Number of eggs per gram of feces (EPG)” value ([3]; day 7) of the same compound?
A: Its value is 32 EPG.

Q: And the “Number of eggs per gram of feces (EPG)” value ([3]; day 10)?
A: The value was 12 EPG.

Q: What about the “Number of eggs per gram of feces (EPG)” value ([3]; day 14) of the same compound?
A: The value was 8 EPG.

Q: And the solubility at 1 h ([4]; Clark Lubs buffer (pH 2.0))?
A: The solubility at 1 h was less than 1 µg/mL.

Q: And the solubility at 24 h ([4]; Clark Lubs buffer (pH 2.0))?
A: The solubility at 24 h was less than 1 µg/mL.

Q: What about the solubility at 1 h ([4]; McDougall buffer (pH 6.8)) of the same compound?
A: Its solubility at 1 h is less than 1 µg/mL.

Q: And the solubility at 24 h ([4]; McDougall buffer (pH 6.8))?
A: Its solubility at 24 h is less than 1 µg/mL.

Q: What about the “dosage required relative to unigastric animals” value (parasites) of the same compound?
A: The value was 5 to 10 times.

Q: And the “Number of eggs per gram of feces (EPG)” value ([5]; day 0)?
A: The value was 112 EPG.

Q: What about the “Number of eggs per gram of feces (EPG)” value ([5]; day 1) of the same compound?
A: The value was 80 EPG.

Q: And the “Number of eggs per gram of feces (EPG)” value ([5]; day 3)?
A: Its value is 34 EPG.

Q: And the “Number of eggs per gram of feces (EPG)” value ([5]; day 5)?
A: The value was 41 EPG.

Q: And the “Number of eggs per gram of feces (EPG)” value ([5]; day 7)?
A: Its value is 49 EPG.

Q: What about the “Number of eggs per gram of feces (EPG)” value ([5]; day 10) of the same compound?
A: Its value is 36 EPG.

Q: And the “Number of eggs per gram of feces (EPG)” value ([5]; day 14)?
A: The value was 40 EPG.

From patent publication US5380745A, “Medicinal composition” (Meiiji Seika Kaisha, Ltd., priority 1991, dated 1995)
